Results: ChEMBL document CHEMBL3797039, “Bcl-2/MDM2 Dual Inhibitors Based on Universal Pyramid-Like α-Helical Mimetics” (J Med Chem, 2016)
pKd, pKi: −log10 of the molar value. Activity calls are given as the source filed them. The rule behind the calls is not given here.

Columns and labels:
[1] = biological target: T1, E3 ubiquitin-protein ligase Mdm2 (Homo sapiens, UniProt Q00987); assay: Displacement of FAM-p53TAD peptide from N-terminal 8x His-tagged human MDM2 (25 to 108 residues) expressed in Escherichia coli BL21 (DE3) after 30 mins by fluorescence polarization assay
Target sequence in this assay (Q00987 whole entry, the tested form may be a part): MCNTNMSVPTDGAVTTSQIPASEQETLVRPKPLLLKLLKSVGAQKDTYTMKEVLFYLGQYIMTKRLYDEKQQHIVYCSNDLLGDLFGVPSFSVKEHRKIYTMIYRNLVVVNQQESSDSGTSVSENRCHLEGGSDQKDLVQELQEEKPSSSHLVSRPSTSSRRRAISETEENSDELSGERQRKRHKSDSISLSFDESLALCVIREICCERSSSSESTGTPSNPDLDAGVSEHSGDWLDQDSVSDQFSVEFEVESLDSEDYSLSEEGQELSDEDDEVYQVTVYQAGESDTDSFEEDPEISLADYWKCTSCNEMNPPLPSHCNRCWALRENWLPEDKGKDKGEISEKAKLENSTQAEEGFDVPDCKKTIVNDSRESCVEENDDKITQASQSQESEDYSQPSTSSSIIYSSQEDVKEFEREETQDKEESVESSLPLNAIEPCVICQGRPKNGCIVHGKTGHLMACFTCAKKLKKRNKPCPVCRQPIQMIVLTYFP

[2] = biological target: T2, Induced myeloid leukemia cell differentiation protein Mcl-1 (Homo sapiens, UniProt Q07820); assay: Displacement of FAM-Bid peptide from N-terminal 8x His-tagged MCl-1 (unknown origin) expressed in Escherichia coli BL21 (DE3) after 30 mins by fluorescence polarization assay
[3] = biological target: T3, Apoptosis regulator Bcl-2 (Homo sapiens, UniProt P10415); assay: Displacement of FAM-Bid peptide from N-terminal 8x His-tagged Bcl-2 (unknown origin) expressed in Escherichia coli BL21 (DE3) after 30 mins by fluorescence polarization assay
[4] = Cell cycle arrest in human HCT116 p53-/- cells assessed as accumulation at G1 phase at 10 uM after 24 hrs by propidium iodide staining-based flow cytometric method (reference value: 28%); type: functional; conditions: HCT-116
[5] = Cell cycle arrest in human HCT116 p53-/- cells assessed as accumulation at <G1 phase at 10 uM after 24 hrs by propidium iodide staining-based flow cytometric method (reference value: 0.6%); type: functional; conditions: HCT-116
[6] = biological target: T3, Apoptosis regulator Bcl-2; assay: Inhibition of BCl-2/Bax interaction in human DMS53 cells harboring p53 mutant at 5 to 10 uM after 12 hrs by immunoprecipitation method; type: cell-based; conditions: DMS-53
[7] = Cell cycle arrest in human HCT116 p53+/+ cells assessed as accumulation at G1 phase at 5 uM after 24 hrs by propidium iodide staining-based flow cytometric method (reference value: 31%); type: functional; conditions: HCT-116
[8] = biological target: T1, E3 ubiquitin-protein ligase Mdm2; assay: Inhibition of MDM2-p53 interaction in human HCT116 p53+/+ cells assessed as upregulation of p21 expression at 5 to 10 uM after 12 hrs by immunoblotting method; type: cell-based; conditions: HCT-116
Target sequence in this assay (Q00987 whole entry, looked up, the tested form may be a part): as the sequence (Q00987 whole entry, the tested form may be a part) above

DMS-53 [9] = assay: Induction of apoptosis in human DMS53 cells harboring p53 mutant assessed as PARP cleavage at 5 to 10 uM after 12 hrs by immunoblotting method; type: functional, cell-based
[10] = biological target: T1, E3 ubiquitin-protein ligase Mdm2; assay: Inhibition of MDM2-p53 interaction in human HCT116 p53+/+ cells assessed as upregulation of MDM2 expression at 5 to 10 uM after 12 hrs by immunoblotting method; type: cell-based; conditions: HCT-116
Target sequence in this assay (Q00987 whole entry, looked up, the tested form may be a part): as the sequence (Q00987 whole entry, the tested form may be a part) above

DMS-53 [11] = assay: Induction of apoptosis in human DMS53 cells harboring p53 mutant assessed as cytochrome c release at 5 to 10 uM after 12 hrs by immunoblotting method; type: functional, cell-based
[12] = Cell cycle arrest in human HCT116 p53-/- cells assessed as accumulation at G2/M phase at 10 uM after 24 hrs by propidium iodide staining-based flow cytometric method (reference value: […]%); type: functional; conditions: HCT-116
[13] = Cell cycle arrest in human HCT116 p53+/+ cells assessed as accumulation at <G1 phase at 5 uM after 24 hrs by propidium iodide staining-based flow cytometric method (reference value: 0.3%); type: functional; conditions: HCT-116
[14] = Cell cycle arrest in human HCT116 p53+/+ cells assessed as accumulation at G2/M phase at 5 uM after 24 hrs by propidium iodide staining-based flow cytometric method (reference value: 26%); type: functional; conditions: HCT-116
[15] = biological target: T1, E3 ubiquitin-protein ligase Mdm2; assay: Inhibition of MDM2-p53 interaction in human HCT116 p53+/+ cells assessed as upregulation of p53 expression at 5 to 10 uM after 12 hrs by immunoblotting method; type: cell-based; conditions: HCT-116
Target sequence in this assay (Q00987 whole entry, looked up, the tested form may be a part): as the sequence (Q00987 whole entry, the tested form may be a part) above

HCT-116 [16] = assay: Induction of apoptosis in human HCT116 p53+/+ cells after 48 hrs by Annexin V-FITC staining-based flow cytometric method; type: functional, cell-based
[17] = Cell cycle arrest in human HCT116 p53+/+ cells assessed as accumulation at S phase at 5 uM after 24 hrs by propidium iodide staining-based flow cytometric method (reference value: 42%); type: functional; conditions: HCT-116
[18] = Cell cycle arrest in human HCT116 p53-/- cells assessed as accumulation at S phase at 10 uM after 24 hrs by propidium iodide staining-based flow cytometric method (reference value: 36%); type: functional; conditions: HCT-116
DMS-53 [19] = assay: Induction of apoptosis in human DMS53 cells harboring p53 mutant assessed as caspase-3 cleavage at 5 to 10 uM after 12 hrs by immunoblotting method; type: functional, cell-based
[20] = biological target: T3, Apoptosis regulator Bcl-2; assay: Inhibition of BCl-2/Bim interaction in human DMS53 cells harboring p53 mutant at 5 to 10 uM after 12 hrs by immunoprecipitation method; type: cell-based; conditions: DMS-53
[21] = biological target: T1, E3 ubiquitin-protein ligase Mdm2; assay: Binding affinity to N-terminal 8x His-tagged human MDM2 (25 to 108 residues) expressed in Escherichia coli BL21 (DE3) by isothermal titration microcalorimetric method
Target sequence in this assay (Q00987 whole entry, the tested form may be a part): as above

HCT-116 [22] = assay: Effect on p53 expression in human HCT116 p53-/- cells at 10 to 20 uM after 12 hrs by immunoblotting method; type: functional, cell-based
[23] = Upregulation of p53 mRNA expression in human HCT116 p53+/+ cells at 10 uM after 12 hrs by qPCR method; type: functional, cell-based; conditions: HCT-116
HCT-116 [24] = assay: Effect on p21 expression in human HCT116 p53-/- cells at 10 to 20 uM after 12 hrs by immunoblotting method; type: functional, cell-based
HCT-116 [25] = assay: Effect on MDM2 expression in human HCT116 p53-/- cells at 10 to 20 uM after 12 hrs by immunoblotting method; type: functional, cell-based
[26] = biological target: T2, Induced myeloid leukemia cell differentiation protein Mcl-1; assay: Binding affinity to N-terminal 8x His-tagged MCl-1 (unknown origin) expressed in Escherichia coli BL21 (DE3) by isothermal titration microcalorimetric method
[27] = biological target: T3, Apoptosis regulator Bcl-2; assay: Binding affinity to N-terminal 8x His-tagged Bcl-2 (unknown origin) expressed in Escherichia coli BL21 (DE3) by isothermal titration microcalorimetric method
[28] = biological target: T3, Apoptosis regulator Bcl-2; assay: Binding affinity to 15N-labeled Bcl-2 (unknown origin) by 2D 1H-15N HSQC NMR spectroscopic method
[29] = biological target: T2, Induced myeloid leukemia cell differentiation protein Mcl-1; assay: Inhibition of Mcl-1/Bim interaction in human DMS53 cells harboring p53 mutant at 5 to 10 uM after 12 hrs by immunoprecipitation method; type: cell-based; conditions: DMS-53
[30] = biological target: T2, Induced myeloid leukemia cell differentiation protein Mcl-1; assay: Inhibition of Mcl-1/Bax interaction in human DMS53 cells harboring p53 mutant at 5 to 10 uM after 12 hrs by immunoprecipitation method; type: cell-based; conditions: DMS-53

T2 sequence (Q07820 whole entry): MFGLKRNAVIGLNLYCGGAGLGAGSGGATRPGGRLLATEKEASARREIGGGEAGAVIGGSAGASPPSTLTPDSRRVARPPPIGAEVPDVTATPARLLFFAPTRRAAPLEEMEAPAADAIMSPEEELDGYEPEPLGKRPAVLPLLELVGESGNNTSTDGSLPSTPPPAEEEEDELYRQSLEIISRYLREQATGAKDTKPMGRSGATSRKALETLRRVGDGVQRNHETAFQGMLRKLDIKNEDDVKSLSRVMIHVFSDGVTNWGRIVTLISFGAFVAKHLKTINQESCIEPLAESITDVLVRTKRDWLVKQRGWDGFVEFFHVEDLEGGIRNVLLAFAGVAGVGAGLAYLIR
T3 sequence (P10415 whole entry): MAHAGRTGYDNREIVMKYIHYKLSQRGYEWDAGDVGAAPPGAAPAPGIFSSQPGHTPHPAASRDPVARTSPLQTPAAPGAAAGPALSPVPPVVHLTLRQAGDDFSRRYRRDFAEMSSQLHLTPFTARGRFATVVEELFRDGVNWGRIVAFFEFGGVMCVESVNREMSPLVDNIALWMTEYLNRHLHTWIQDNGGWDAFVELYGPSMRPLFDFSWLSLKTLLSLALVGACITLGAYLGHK

| SMILES | pKi [1] | pKi [2] | pKi [3] | other results |
| --- | --- | --- | --- | --- |
| CC(C)c1ccc2/c(=N\c3ccc(Oc4ccccc4)cc3)c3cc(O)c(O)c(O)c3n(C(=O)c3ccc(C(C)(C)C)cc3)c2c1 | < 4.60 | 7.10 | 7.25 |  |
| CN(C)CC[C@H](CSc1ccccc1)Nc1ccc(S(=O)(=O)NC(=O)c2ccc(N3CCN(Cc4ccccc4-c4ccc(Cl)cc4)CC3)cc2)cc1[N+](=O)[O-] |  |  |  | Activity [4]: 26%; Activity [5]: 6.4%; inhibition [6]: Active; Activity [7]: 28%; inhibition [8]: inactive; Activity (DMS-53 [9]): Active; inhibition [10]: inactive; Activity (DMS-53 [11]): Active; Activity [12]: 34%; Activity [13]: 7.1%; Activity [14]: 24%; inhibition [15]: inactive; Activity (HCT-116 [16]): Active; Activity [17]: 40%; Activity [18]: 32%; Activity (DMS-53 [19]): Active; inhibition [20]: Active |
| CCOc1ccc(-c2c(NC(=O)c3ccc(C(C)(C)C)cc3)c(C(=O)O)nn2-c2ccc(Oc3ccccc3)cc2)cc1 | 6.16 | 6.39 | 6.39 |  |
| O=C(O)c1cc(-c2ccccc2)n(-c2ccccc2)n1 | < 4.60 | < 5.00 | < 5.00 |  |
| CC(C)Oc1ccc(C(=O)Nc2c(C(=O)O)nn(-c3ccc(Oc4ccccc4)cc3)c2-c2ccc(OC(C)C)cc2)cc1 | 6.97 | 6.79 | 6.85 | Activity [4]: 30%; Activity [5]: 5.2%; pKd [21]: 6.33; Activity [7]: 40%; Activity (DMS-53 [9]): Active; Activity (HCT-116 [22]): inactive; Activity [23]: inactive; Activity (DMS-53 [11]): Active; Activity (HCT-116 [24]): inactive; Activity [12]: 31%; Activity [13]: 6.8%; Activity (HCT-116 [25]): inactive; pKd [26]: 6.58; Activity [14]: 47%; Activity [17]: 6%; pKd [27]: 6.54; Activity [18]: 33%; Activity (DMS-53 [19]): Active |
| CCOc1ccc(-c2c(NC(=O)c3ccccc3)c(C(=O)O)nn2-c2ccc(Oc3ccccc3)cc2)cc1 | 5.95 | 6.20 | 6.07 |  |
| COC(=O)c1nn(-c2ccc(Oc3ccccc3)cc2)c(-c2ccc(OC(C)C)cc2)c1NC(=O)c1ccc(OC(C)C)cc1 | 5.37 | 5.34 | 5.29 |  |
| CC(C)c1ccc(-n2nc(C(=O)O)cc2-c2ccc(OCc3ccccc3)cc2)cc1 | 6.21 | 6.65 | 6.41 |  |
| CC(C)Oc1ccc(-c2cc(C(=O)O)nn2-c2ccc(Oc3ccccc3)cc2)cc1 | 6.15 | 6.43 | 6.03 |  |
| COc1ccc(C2=N[C@@H](c3ccc(Cl)cc3)[C@@H](c3ccc(Cl)cc3)N2C(=O)N2CCNC(=O)C2)c(OC(C)C)c1 [NUTLIN-3] |  | < 5.00 | < 5.00 | Activity [4]: 29%; Activity [5]: 0.8%; inhibition [6]: inactive; Activity [7]: 41%; pKd [28]: 4.82; Activity [12]: 34%; Activity [13]: 0.9%; inhibition [29]: inactive; Activity [14]: 49%; Activity [17]: 8%; inhibition [30]: inactive; Activity [18]: 35%; inhibition [20]: inactive |
| CC(C)Oc1ccc(C(=O)Nc2c(C(=O)O)nn(-c3ccc(C(C)C)cc3)c2-c2ccc(OCc3ccccc3)cc2)cc1 | 5.66 | 5.59 | < 5.00 |  |
| CCOc1ccc(-c2c(NC(=O)c3ccc(OCC(C)C)cc3)c(C(=O)O)nn2-c2ccc(Oc3ccccc3)cc2)cc1 | 6.35 | 6.41 | 5.98 |  |
| CCOc1ccc(-c2c(NC(=O)c3ccc(OC(C)C)cc3)c(C(=O)O)nn2-c2ccc(Oc3ccccc3)cc2)cc1 | 6.52 | 7.09 | 7.55 |  |
| CC(C)Oc1ccc(C(=O)Nc2c(C(=O)O)nn(-c3ccc(Oc4ccccc4)cc3)c2-c2ccc(OCc3ccccc3)cc2)cc1 | 5.35 | < 5.00 | < 5.00 |  |
| Cc1ccc(/N=c2\c3ccc(C)cc3n(C(=O)c3ccc(C(C)(C)C)cc3)c3c(O)c(O)c(O)cc23)cc1 | 4.61 | 6.61 | 6.68 |  |
| O=C(O)c1cc(-c2ccc(OCc3ccccc3)cc2)n(-c2ccccc2)n1 | 4.70 | < 5.00 | < 5.00 |  |
| CCOc1ccc(-c2cc(C(=O)O)nn2-c2ccccc2)cc1 | 5.49 | 5.42 | 5.22 |  |
| CC(C)Oc1ccc(-c2cc(C(=O)O)nn2-c2ccc(C(C)C)cc2)cc1 | 5.67 | 5.62 | 5.28 |  |
| Cc1cc2c(C(C)C)c(O)c(O)c(C=O)c2c(O)c1-c1c(C)cc2c(C(C)C)c(O)c(O)c(C=O)c2c1O [GOSSYPOL] | < 4.60 | 6.59 |  |  |
| CC(C)COc1ccc(C(=O)Nc2c(C(=O)O)nn(-c3ccc(Oc4ccccc4)cc3)c2-c2ccc(OC(C)C)cc2)cc1 | 6.37 | 6.14 | 5.85 |  |
| CCOc1ccc(-c2cc(C(=O)O)nn2-c2ccc(Oc3ccccc3)cc2)cc1 | 5.99 | 6.35 | 6.16 |  |
| CC(C)COc1ccc(-c2cc(C(=O)O)nn2-c2ccccc2)cc1 | 5.13 | 5.09 | < 5.00 |  |
| CC(C)Oc1ccc(-c2cc(C(=O)O)nn2-c2ccccc2)cc1 | 5.64 | 5.44 | 5.15 |  |
